Active and inactive are the calls of the source. The rule behind the calls is not given here.
Test system: CCRIS mutagenicity, Ames/micronucleus/aberration tests
Experiment: CCRIS mutagenicity studies
[1] = Test System: AMES SALMONELLA TYPHIMURIUM, Strain/Indicator: TA98, Metabolic Activation: NONE, Method: PREINCUBATION
[2] = Test System: AMES SALMONELLA TYPHIMURIUM, Strain/Indicator: TA98, Metabolic Activation: RAT, LIVER, S-9, AROCLOR 1254, Method: PREINCUBATION
[3] = Test System: AMES SALMONELLA TYPHIMURIUM, Strain/Indicator: TA100, Metabolic Activation: NONE, Method: PREINCUBATION
[4] = Test System: AMES SALMONELLA TYPHIMURIUM, Strain/Indicator: TA100, Metabolic Activation: NONE, Method: STANDARD PLATE
[5] = Test System: AMES SALMONELLA TYPHIMURIUM, Strain/Indicator: TA100, Metabolic Activation: RAT, LIVER, S-9, AROCLOR 1254, Method: PREINCUBATION
[6] = Test System: AMES SALMONELLA TYPHIMURIUM, Strain/Indicator: TA1535, Metabolic Activation: NONE, Method: PREINCUBATION
[7] = Test System: AMES SALMONELLA TYPHIMURIUM, Strain/Indicator: TA1537, Metabolic Activation: NONE, Method: PREINCUBATION
[8] = Test System: AMES SALMONELLA TYPHIMURIUM, Strain/Indicator: TA98, Metabolic Activation: RAT LIVER S-9, PHENOBARBITAL AND BETA-NAPHTHOFLAVONE, Method: PREINCUBATION
[9] = Test System: AMES SALMONELLA TYPHIMURIUM, Strain/Indicator: TA100, Metabolic Activation: RAT LIVER S-9, PHENOBARBITAL AND BETA-NAPHTHOFLAVONE, Method: PREINCUBATION
[10] = Test System: AMES SALMONELLA TYPHIMURIUM, Strain/Indicator: TA1535, Metabolic Activation: RAT LIVER S-9, PHENOBARBITAL AND BETA-NAPHTHOFLAVONE, Method: PREINCUBATION
[11] = Test System: AMES SALMONELLA TYPHIMURIUM, Strain/Indicator: TA1537, Metabolic Activation: RAT LIVER S-9, PHENOBARBITAL AND BETA-NAPHTHOFLAVONE, Method: PREINCUBATION
[12] = Test System: AMES SALMONELLA TYPHIMURIUM, Strain/Indicator: TA98, Metabolic Activation: NONE, Method: STANDARD PLATE

O=[N+]([O-])c1cccc(Cl)c1Cl
mutagenic call (Test System: AMES SALMONELLA TYPHIMURIUM, Strain/Indicator: TA98, Metabolic Activation: HAMSTER, LIVER, S-9, AROCLOR 1254, Method: PREINCUBATION): inactive; negative | mutagenic call [1]: inactive; negative | mutagenic call [2]: inactive; negative | mutagenic call (Test System: AMES SALMONELLA TYPHIMURIUM, Strain/Indicator: TA100, Metabolic Activation: HAMSTER, LIVER, S-9, AROCLOR 1254, Method: PREINCUBATION): inactive; negative | mutagenic call [3]: inactive; negative | mutagenic call [4]: inactive; negative | mutagenic call [5]: inactive; negative | mutagenic call (Test System: AMES SALMONELLA TYPHIMURIUM, Strain/Indicator: TA1535, Metabolic Activation: HAMSTER, LIVER, S-9, AROCLOR 1254, Method: PREINCUBATION): inactive; negative | mutagenic call [6]: inactive; negative | mutagenic call (Test System: AMES SALMONELLA TYPHIMURIUM, Strain/Indicator: TA1535, Metabolic Activation: RAT, LIVER, S-9, AROCLOR 1254, Method: PREINCUBATION): inactive; negative | mutagenic call (Test System: AMES SALMONELLA TYPHIMURIUM, Strain/Indicator: TA1537, Metabolic Activation: HAMSTER, LIVER, S-9, AROCLOR 1254, Method: PREINCUBATION): inactive; negative | mutagenic call [7]: inactive; negative | mutagenic call (Test System: AMES SALMONELLA TYPHIMURIUM, Strain/Indicator: TA1537, Metabolic Activation: RAT, LIVER, S-9, AROCLOR 1254, Method: PREINCUBATION): inactive; negative

O=C(O)CCCCCCCCC(=O)O
mutagenic call [1]: inactive; negative | mutagenic call [8]: inactive; negative | mutagenic call (Test System: AMES SALMONELLA TYPHIMURIUM, Strain/Indicator: TA98, Metabolic Activation: RAT, LIVER, S-9, KC 500, Method: PREINCUBATION): inactive; negative | mutagenic call [3]: inactive; negative | mutagenic call [9]: inactive; negative | mutagenic call (Test System: AMES SALMONELLA TYPHIMURIUM, Strain/Indicator: TA100, Metabolic Activation: RAT, LIVER, S-9, KC 500, Method: PREINCUBATION): inactive; negative | mutagenic call [6]: inactive; negative | mutagenic call [10]: inactive; negative | mutagenic call (Test System: AMES SALMONELLA TYPHIMURIUM, Strain/Indicator: TA1535, Metabolic Activation: RAT, LIVER, S-9, KC 500, Method: PREINCUBATION): inactive; negative | mutagenic call [7]: inactive; negative | mutagenic call [11]: inactive; negative | mutagenic call (Test System: AMES SALMONELLA TYPHIMURIUM, Strain/Indicator: TA1537, Metabolic Activation: RAT, LIVER, S-9, KC 500, Method: PREINCUBATION): inactive; negative | mutagenic call (Test System: AMES SALMONELLA TYPHIMURIUM, Strain/Indicator: TA1538, Metabolic Activation: NONE, Method: PREINCUBATION): inactive; negative | mutagenic call (Test System: AMES SALMONELLA TYPHIMURIUM, Strain/Indicator: TA1538, Metabolic Activation: RAT, LIVER, S-9, KC 500, Method: PREINCUBATION): inactive; negative | mutagenic call (Test System: E. COLI, Strain/Indicator: WP2UVRA/PKM101, Metabolic Activation: NONE, Method: PREINCUBATION): inactive; negative | mutagenic call (Test System: E. COLI, Strain/Indicator: WP2UVRA/PKM101, Metabolic Activation: RAT LIVER S-9, PHENOBARBITAL AND BETA-NAPHTHOFLAVONE, Method: PREINCUBATION): inactive; negative | mutagenic call (Test System: E. COLI, Strain/Indicator: WP2 UVRA, Metabolic Activation: NONE, Method: PREINCUBATION): inactive; negative | mutagenic call (Test System: E. COLI, Strain/Indicator: WP2 UVRA, Metabolic Activation: RAT, LIVER, S-9, KC 500, Method: PREINCUBATION): inactive; negative

NN=C(N)N
mutagenic call [1]: inactive; negative | mutagenic call [8]: inactive; negative | mutagenic call [3]: inactive; negative | mutagenic call [9]: inactive; negative | mutagenic call [6]: inactive; negative | mutagenic call [10]: inactive; negative | mutagenic call [7]: inactive; negative | mutagenic call [11]: inactive; negative | mutagenic call (Test System: E.COLI, Strain/Indicator: WP2UVRA/PKM101, Metabolic Activation: NONE, Method: PREINCUBATION): inactive; negative | mutagenic call (Test System: E.COLI, Strain/Indicator: WP2UVRA/PKM101, Metabolic Activation: RAT LIVER S-9, PHENOBARBITAL AND BETA-NAPHTHOFLAVONE, Method: PREINCUBATION): inactive; negative

CC(=O)OCc1ccc(N=Nc2ccccc2COC(C)=O)cc1
mutagenic call [3]: active; positive | mutagenic call (Test System: AMES SALMONELLA TYPHIMURIUM, Strain/Indicator: TA100, Metabolic Activation: RAT, LIVER, S-9, POLYCHLORINATED BIPHENYLS, Method: PREINCUBATION): inactive; negative

CCN(CC)CCCNc1ccc2ncn3c4ccc(O)cc4c(=O)c1c23
mutagenic call (Test System: CHINESE HAMSTER V-79, Strain/Indicator: V-79 (HGPRT)/6-THIOGUANINE, Metabolic Activation: NONE): active; positive

OCc1ccco1
mutagenic call (Test System: AMES SALMONELLA TYPHIMURIUM, Strain/Indicator: TA98, Metabolic Activation: HAMSTER LIVER S-9, AROCLOR 1254 (10%), Method: PREINCUBATION): inactive; negative | mutagenic call [1]: inactive; negative | mutagenic call [12]: inactive; negative | mutagenic call (Test System: AMES SALMONELLA TYPHIMURIUM, Strain/Indicator: TA98, Metabolic Activation: RAT LIVER S-9, AROCLOR 1254 (10%), Method: PREINCUBATION): inactive; negative | mutagenic call [2]: inactive; negative | mutagenic call (Test System: AMES SALMONELLA TYPHIMURIUM, Strain/Indicator: TA98, Metabolic Activation: S-9, Method: STANDARD PLATE): inactive; negative | mutagenic call (Test System: AMES SALMONELLA TYPHIMURIUM, Strain/Indicator: TA100, Metabolic Activation: HAMSTER LIVER S-9, AROCLOR 1254 (10%), Method: PREINCUBATION): inactive; negative | mutagenic call [3]: inactive; negative | mutagenic call [4]: inactive; negative | mutagenic call (Test System: AMES SALMONELLA TYPHIMURIUM, Strain/Indicator: TA100, Metabolic Activation: RAT LIVER S-9, AROCLOR 1254 (10%), Method: PREINCUBATION): inactive; negative | mutagenic call [5]: inactive; negative | mutagenic call (Test System: AMES SALMONELLA TYPHIMURIUM, Strain/Indicator: TA100, Metabolic Activation: S-9, Method: STANDARD PLATE): inactive; negative | mutagenic call (Test System: AMES SALMONELLA TYPHIMURIUM, Strain/Indicator: TA102, Metabolic Activation: NONE, Method: PREINCUBATION): inactive; negative | mutagenic call (Test System: AMES SALMONELLA TYPHIMURIUM, Strain/Indicator: TA102, Metabolic Activation: RAT, LIVER, S-9, AROCLOR 1254, Method: PREINCUBATION): inactive; negative | mutagenic call (Test System: AMES SALMONELLA TYPHIMURIUM, Strain/Indicator: TA1535, Metabolic Activation: HAMSTER LIVER S-9, AROCLOR 1254 (10%), Method: PREINCUBATION): inactive; negative | mutagenic call [6]: inactive; negative | mutagenic call (Test System: AMES SALMONELLA TYPHIMURIUM, Strain/Indicator: TA1535, Metabolic Activation: RAT LIVER S-9, AROCLOR 1254 (10%), Method: PREINCUBATION): inactive; negative | mutagenic call (Test System: AMES SALMONELLA TYPHIMURIUM, Strain/Indicator: TA1537, Metabolic Activation: HAMSTER LIVER S-9, AROCLOR 1254 (10%), Method: PREINCUBATION): inactive; negative | mutagenic call [7]: inactive; negative | mutagenic call (Test System: AMES SALMONELLA TYPHIMURIUM, Strain/Indicator: TA1537, Metabolic Activation: RAT LIVER S-9, AROCLOR 1254 (10%), Method: PREINCUBATION): inactive; negative

O=[N+]([O-])c1ccc2ccc3cccc4c(O)cc1c2c34
mutagenic call [12]: active; positive | mutagenic call (Test System: AMES SALMONELLA TYPHIMURIUM, Strain/Indicator: TA98, Metabolic Activation: RAT, LIVER, S-9, AROCLOR 1254, Method: STANDARD PLATE): active; positive

CC(=O)OCc1c2ccccc2cc2ccccc12
mutagenic call [12]: active; positive | mutagenic call [4]: active; positive
